Experimental data: PubChem BioAssay AID264 (DTP/NCI, 2004)
Where “and” joins values, the source holds several entries; their conditions need not be identical. Identical values can stand only once. Inconclusive results are not listed.

Tested on: nude mice, LX-1 lung xenograft intrarenal, tumor weight T/C
Test: NCI In Vivo Anticancer Drug Screen. Data for tumor model Human Lung LX-1 Xenograft (intrarenal inoculation) in NU/NU Swiss (nude) mice
Conditions: endpoint: mean tumor weight change, higher = larger tumour
In short: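 Compound-treated mice carrying transplanted tumors were compared with vehicle-treated controls. Tumor size was the measured end point, and the value is the treated-group measurement divided by the control-group measurement (T/C).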

With CC1CN1C(=O)NCCCCCCNC(=O)N1CC1C (centres undefined) as the compound, how does the T/C (dose: 40.0 mg/kg/injection, schedule: Q04DX003 (sc), vehicle: Klucel (hydroxypropylcellulose) (HPC)) read?
Its T/C is 6 % of control and 23 % of control.

COc1cc([C@@H]2c3cc4c(c(O)c3C[C@H]3COC(=O)[C@@H]32)OCO4)cc(OC)c1O was tested. Which T/C (dose: 0.06 mg/kg/injection, schedule: Q01DX010 (sc), vehicle: saline) did it give?
The T/C was 97 % of control.

What about the T/C (dose: 0.12 mg/kg/injection, schedule: Q01DX010 (sc), vehicle: saline) of the same compound?
Its T/C is 91 % of control.

What about the T/C (dose: 0.25 mg/kg/injection, schedule: Q01DX010 (sc), vehicle: saline) of the same compound?
The T/C was 74 % of control.

And the T/C (dose: 0.5 mg/kg/injection, schedule: Q01DX010 (sc), vehicle: saline)?
The T/C was 205 % of control.

And the T/C (dose: 1.0 mg/kg/injection, schedule: Q01DX010 (sc), vehicle: saline)?
The T/C was 76 % of control.

C=CCc1cn(C2CC(O)C(CO)O2)c(=O)[nH]c1=O (centres undefined) was tested. Which T/C (dose: 300.0 mg/kg/injection, schedule: Q04DX003 (sc), vehicle: saline) did it give?
Its T/C is 91 % of control.

And the T/C (dose: 600.0 mg/kg/injection, schedule: Q04DX003 (sc), vehicle: saline)?
Its T/C is 82 % of control.

And the T/C (dose: 1200.0 mg/kg/injection, schedule: Q04DX003 (sc), vehicle: saline)?
The T/C was 74 % of control.

And the T/C (dose: 2400.0 mg/kg/injection, schedule: Q04DX003 (sc), vehicle: saline)?
The T/C was 111 % of control.

With CN1CCN(CCCN2c3ccccc3Sc3ccc(C(F)(F)F)cc32)CC1 as the compound, how does the T/C (dose: 6.25 mg/kg/injection, schedule: Q01DX010 (sc), vehicle: saline) read?
Its T/C is 97 % of control.

What about the T/C (dose: 12.5 mg/kg/injection, schedule: Q01DX010 (sc), vehicle: saline) of the same compound?
Its T/C is 124 % of control.

What about the T/C (dose: 100.0 mg/kg/injection, schedule: Q01DX010 (sc), vehicle: saline) of the same compound?
Its T/C is 63 % of control and 66 % of control and 87 % of control.

What about the T/C (dose: 400.0 mg/kg/injection, schedule: Q01DX010 (sc), vehicle: saline) of the same compound?
The T/C was 31 % of control.

O=C1C=CC(=O)N1c1ccc(Cl)cc1 was tested. Which T/C (dose: 37.5 mg/kg/injection, schedule: Q04DX003 (sc), vehicle: Klucel (hydroxypropylcellulose) (HPC)) did it give?
The T/C was 116 % of control.

And the T/C (dose: 75.0 mg/kg/injection, schedule: Q04DX003 (sc), vehicle: Klucel (hydroxypropylcellulose) (HPC))?
Its T/C is 123 % of control.

What about the T/C (dose: 150.0 mg/kg/injection, schedule: Q04DX003 (sc), vehicle: Klucel (hydroxypropylcellulose) (HPC)) of the same compound?
Its T/C is 85 % of control.

With CC(C)[C@](O)(C(=O)OCC1=CC[N+]2([O-])CC[C@@H](O)[C@@H]12)[C@H](C)O (some centres undefined) as the compound, how does the T/C (dose: 50.0 mg/kg/injection, schedule: Q01DX010 (sc), vehicle: water) read?
The T/C was 59 % of control.

What about the T/C (dose: 100.0 mg/kg/injection, schedule: Q01DX010 (sc), vehicle: water) of the same compound?
Its T/C is 44 % of control.

What about the T/C (dose: 200.0 mg/kg/injection, schedule: Q01DX010 (sc), vehicle: water) of the same compound?
Its T/C is 58 % of control.

What about the T/C (dose: 400.0 mg/kg/injection, schedule: Q01DX010 (sc), vehicle: water) of the same compound?
Its T/C is 36 % of control.

O=NN(CCCl)C(=O)Oc1ccc(OC(=O)N(CCCl)N=O)cc1 was tested. Which T/C (dose: 300.0 mg/kg/injection, schedule: Q04DX003 (sc), vehicle: Klucel (hydroxypropylcellulose) (HPC)) did it give?
Its T/C is 110 % of control.

And the T/C (dose: 600.0 mg/kg/injection, schedule: Q04DX003 (sc), vehicle: Klucel (hydroxypropylcellulose) (HPC))?
Its T/C is 70 % of control.

And the T/C (dose: 1200.0 mg/kg/injection, schedule: Q04DX003 (sc), vehicle: Klucel (hydroxypropylcellulose) (HPC))?
The T/C was 49 % of control.

How did the T/C (dose: 20.0 mg/kg/injection, schedule: Q04DX003 (sc), vehicle: saline + alcohol) turn out when C=C(C)C(=O)OC1C/C(CO)=C\C(O)C/C(C)=C/C2OC(=O)C(=C)C21 (centres undefined) was run?
The T/C was 96 % of control.

And the T/C (dose: 40.0 mg/kg/injection, schedule: Q04DX003 (sc), vehicle: saline + alcohol)?
Its T/C is 119 % of control.

What about the T/C (dose: 80.0 mg/kg/injection, schedule: Q04DX003 (sc), vehicle: saline + alcohol) of the same compound?
Its T/C is 104 % of control.

What about the T/C (dose: 160.0 mg/kg/injection, schedule: Q04DX003 (sc), vehicle: saline + alcohol) of the same compound?
Its T/C is 107 % of control.

For N#C[Se-].c1ccc([Te+](c2ccccc2)c2ccccc2)cc1, which T/C (dose: 6.25 mg/kg/injection, schedule: Q04DX003 (sc), vehicle: Klucel (hydroxypropylcellulose) (HPC)) is on record?
The T/C was 75 % of control.

What about the T/C (dose: 25.0 mg/kg/injection, schedule: Q04DX003 (sc), vehicle: Klucel (hydroxypropylcellulose) (HPC)) of the same compound?
The T/C was 82 % of control.

For N[C@H](C(=O)O)[C@@H]1CC(Cl)=NO1, which T/C (dose: 2.0 mg/kg/injection, schedule: Q01DX010 (sc), vehicle: saline) is on record?
Its T/C is 16 % of control.

What about the T/C (dose: 2.0 mg/kg/injection, schedule: Q01DX010 (sc), vehicle: suspension in saline) of the same compound?
The T/C was 30 % of control.

And the T/C (dose: 4.0 mg/kg/injection, schedule: Q01DX010 (sc), vehicle: suspension in saline)?
Its T/C is 33 % of control.

And the T/C (dose: 8.0 mg/kg/injection, schedule: Q01DX010 (sc), vehicle: suspension in saline)?
The T/C was 45 % of control.

And the T/C (dose: 16.0 mg/kg/injection, schedule: Q01DX010 (sc), vehicle: suspension in saline)?
The T/C was 15 % of control.

How did the T/C (dose: 75.0 mg/kg/injection, schedule: Q04DX003 (sc), vehicle: saline with Tween-80) turn out when CC1(C)OC2C(COC(=O)c3ccc([N+](=O)[O-])cc3)OC(NC(=O)N(CCCl)N=O)C2O1 (centres undefined) was run?
Its T/C is 84 % of control.

What about the T/C (dose: 150.0 mg/kg/injection, schedule: Q04DX003 (sc), vehicle: saline with Tween-80) of the same compound?
Its T/C is 43 % of control.

What about the T/C (dose: 300.0 mg/kg/injection, schedule: Q04DX003 (sc), vehicle: saline with Tween-80) of the same compound?
Its T/C is 41 % of control.

And the T/C (dose: 600.0 mg/kg/injection, schedule: Q04DX003 (sc), vehicle: saline with Tween-80)?
The T/C was 27 % of control.
